# Columns and labels:
# [1] = tested on: Oryctolagus cuniculus; assay: Cardiovascular activity in Albino rabbit assessed as change in heart rate tested at basal heart rate of 180 beats/min at 0.25 mg/kg, iv by physiograph 4; assay type: functional
# [2] = tested on: Oryctolagus cuniculus; assay: Cardiovascular activity in Albino rabbit assessed as change in heart rate tested at basal heart rate of 180 beats/min at 0.50 mg/kg, iv by physiograph 4; assay type: functional; settings: dose 0.5 mg/kg
# [3] = tested on: Oryctolagus cuniculus; assay: Cardiovascular activity in Albino rabbit assessed as change in heart rate tested at basal heart rate of 180 beats/min at 1.0 mg/kg, iv by physiograph 4; assay type: functional
# [4] = tested on: Oryctolagus cuniculus; assay: Cardiovascular activity in Albino rabbit assessed as change in heart rate tested at basal heart rate of 178 beats/min at 0.50 mg/kg, iv by physiograph 4; assay type: functional; settings: dose 0.5 mg/kg
# [5] = tested on: Oryctolagus cuniculus; assay: Cardiovascular activity in Albino rabbit assessed as change in heart rate tested at basal heart rate of 178 beats/min at 1.0 mg/kg, iv by physiograph 4; assay type: functional
# [6] = tested on: Oryctolagus cuniculus; assay: Cardiovascular activity in Albino rabbit assessed as sinusoidal heart rate tested at basal heart rate of 180 beats/min at 0.05 mg/kg, iv by physiograph 4; assay type: functional
# [7] = tested on: Oryctolagus cuniculus; assay: Cardiovascular activity in Albino rabbit assessed as change in heart rate tested at basal heart rate of 180 beats/min at 0.10 mg/kg, iv by physiograph 4; assay type: functional; settings: dose 0.1 mg/kg
# [8] = tested on: Oryctolagus cuniculus; assay: Cardiovascular activity in Albino rabbit assessed as change in heart rate tested at basal heart rate of 185 beats/min at 0.10 mg/kg, iv by physiograph 4; assay type: functional; settings: dose 0.1 mg/kg
# [9] = tested on: Oryctolagus cuniculus; assay: Cardiovascular activity in Albino rabbit assessed as change in heart rate tested at basal heart rate of 185 beats/min at 0.25 mg/kg, iv by physiograph 4; assay type: functional
# [10] = tested on: Oryctolagus cuniculus; assay: Cardiovascular activity in Albino rabbit assessed as change in heart rate tested at basal heart rate of 185 beats/min at 0.50 mg/kg, iv by physiograph 4; assay type: functional; settings: dose 0.5 mg/kg
# [11] = tested on: Oryctolagus cuniculus; assay: Cardiovascular activity in Albino rabbit assessed as change in heart rate tested at basal heart rate of 185 beats/min at 1.0 mg/kg, iv by physiograph 4; assay type: functional
# [12] = tested on: Oryctolagus cuniculus; assay: Cardiovascular activity in Albino rabbit assessed as change in heart rate tested at basal heart rate of 185 beats/min at 5.0 mg/kg, iv by physiograph 4; assay type: functional
# [13] = tested on: Oryctolagus cuniculus; assay: Cardiovascular activity in Albino rabbit assessed as change in heart rate tested at basal heart rate of 170 beats/min at 0.10 mg/kg, iv by physiograph 4; assay type: functional; settings: dose 0.1 mg/kg
# [14] = tested on: Oryctolagus cuniculus; assay: Cardiovascular activity in Albino rabbit assessed as change in heart rate tested at basal heart rate of 170 beats/min at 0.25 mg/kg, iv by physiograph 4; assay type: functional
# [15] = tested on: Oryctolagus cuniculus; assay: Cardiovascular activity in Albino rabbit assessed as change in heart rate tested at basal heart rate of 170 beats/min at 0.50 mg/kg, iv by physiograph 4; assay type: functional; settings: dose 0.5 mg/kg
# [16] = tested on: Oryctolagus cuniculus; assay: Cardiovascular activity in Albino rabbit assessed as change in heart rate tested at basal heart rate of 170 beats/min at 1.0 mg/kg, iv by physiograph 4; assay type: functional
# [17] = tested on: Oryctolagus cuniculus; assay: Cardiotoxicity in iv dosed Albino rabbit assessed as time to produce arrhythmias tested at basal heart rate of 170 beats/min; assay type: toxicity, organism-based; settings: in vivo
# [18] = tested on: Oryctolagus cuniculus; assay: Cardiotoxicity in iv dosed Albino rabbit assessed as drug level to produce arrhythmias tested at basal heart rate of 170 beats/min; assay type: toxicity, organism-based; settings: in vivo
# [19] = tested on: Oryctolagus cuniculus; assay: Cardiotoxicity in iv dosed Albino rabbit assessed as drug level to produce arrhythmias tested at basal heart rate of 180 beats/min; assay type: toxicity, organism-based; settings: in vivo
# [20] = tested on: Oryctolagus cuniculus; assay: Cardiotoxicity in iv dosed Albino rabbit assessed as time to produce arrhythmias tested at basal heart rate of 180 beats/min; assay type: toxicity, organism-based; settings: in vivo
# [21] = tested on: Oryctolagus cuniculus; assay: Cardiovascular activity in Albino rabbit assessed as change in heart rate tested at basal heart rate of 180 beats/min at 5.0 mg/kg, iv by physiograph 4; assay type: functional
Structure (SMILES),Activity [1],Activity [2],Activity [3],Activity [6],Activity [7],Activity [14],Activity [15],Activity [16],further results
CCN1C[C@]2(COC(=O)c3ccccc3NC(=O)CCC(=O)OC)CC[C@H](OC)[C@@]34[C@@H]5C[C@H]6[C@H](OC)[C@@H]5[C@](O)(C[C@@H]6OC)[C@](O)([C@@H](OC)[C@H]23)[C@@H]14 [CASHMIRADELPHINE],-5 bpm,-5 bpm,-20 bpm,-5 bpm,5 bpm,,,,Activity [4]: -8 bpm; Activity [5]: -10 bpm
CCN1C[C@]2(O)CC[C@H](OC)[C@@]34[C@@H]2C[C@H]([C@@H]13)[C@@]1(O)C[C@H](OC)[C@H]2C[C@@H]4[C@]1(O)[C@H]2OC [LAPPACONINE],,,,,,,,,Activity [8]: -5 bpm; Activity [9]: 0 bpm; Activity [10]: 0 bpm; Activity [11]: 0 bpm; Activity [12]: 0 bpm
CCN1C[C@]2(OC(=O)c3ccccc3N)CC[C@H](OC)[C@@]34[C@@H]2C[C@H]([C@@H]13)[C@@]1(O)C[C@H](OC)[C@H]2C[C@@H]4[C@]1(O)[C@H]2OC,,,0 bpm,,,5 bpm,0 bpm,0 bpm,Activity [13]: 8 bpm; Activity [17]: 52 s; Activity [18]: 1 mg/kg; Activity [19]: 1 mg/kg; Activity [20]: 85 s
CCN1C[C@]2(COC(=O)c3ccccc3N)CC[C@H](OC)[C@]34C1[C@](O)([C@@H](OC)[C@H]23)[C@@]1(O)C[C@H](OC)[C@H]2C[C@@H]4[C@@H]1[C@H]2OC [ANTHRANOYLLYCOCTONINE],,,,,,8 bpm,5 bpm,-5 bpm,
CCN1C[C@]2(COC(=O)c3ccccc3NC(=O)CCC(N)=O)CC[C@H](OC)[C@@]34[C@@H]5C[C@H]6[C@H](OC)[C@@H]5[C@](O)(C[C@@H]6OC)[C@](O)([C@@H](OC)[C@H]23)[C@@H]14 [AVADHARIDINE],5 bpm,0 bpm,0 bpm,0 bpm,8 bpm,,,,Activity [21]: -10 bpm

# Reference: ChEMBL document CHEMBL1158659, “The alkaloids of Delphinium cashmirianum” (J Nat Prod, 1979)
